In ChEMBL document CHEMBL1148228, “Synthesis of N tau-arylhistidine derivatives via direct N-arylation” (Bioorg Med Chem Lett, 2004) one finds IC50 data, which are given here for one compound.

The species entered for this assay is Oryctolagus cuniculus. The assay can be described thus: Inhibitory concentration of compound against antigen binding site in immunized rabbits. Format: functional, organism-based.

Compound `CC(=O)NC(Cc1cn(-c2ccc(Br)cc2)cn1)C(=O)O` (stereo unspecified) displayed a half-inhibitory concentration (IC50) of around 1000 nM.

One may read the IC50 as the point on the concentration scale where inhibition reaches its midpoint. High values mean weaker potency in that assay, low ones greater potency in that assay.
